pEC50, pIC50: −log10 of the molar value. Where two headings read alike, the source gives them in different places.
Legend:
[1] = biological target: neuraminidase of live influenza A virus (Influenza A virus, UniProt C3W6G3); test: biochemical; details: read-out: A/Ca/7/2009 (H1N1) IC50
[2] = biological target: neuraminidase of live influenza A virus (Influenza B virus, UniProt C0LT34); test: biochemical; details: read-out: B/Brisbane 60/2008 (Victoria) IC50
[3] = biological target: neuraminidase of live influenza A virus (Influenza A virus, UniProt Q91MA2); test: biochemical
[4] = biological target: neuraminidase of live influenza A virus (Influenza A virus, UniProt P03468); test: biochemical
[5] = biological target: neuraminidase of live influenza A/Ca/07/2009 (Influenza A virus, UniProt C3W6G3); assay type: biochemical; details: read-out: A/Ca/07/2009 pdm IC50
INFV A (A/CA/09 H1N1) = test: microbe, parasite or virus in culture; assay type: cell-based, Influenza A virus; details: read-out: EC50 vs INFV A
INFV B (B/Brisbane) = test: microbe, parasite or virus in culture; assay type: cell-based, Influenza B virus; details: read-out: EC50 vs INFV B

In the case of `C#CCOCCOCCOCCOCCC(=O)N(CCOCCNC(=O)OC[C@@H](O)[C@@H](O)[C@@H]1OC(C(=O)O)=C[C@H](NC(=N)N)[C@H]1NC(C)=O)CCOCCNC(=O)OC[C@@H](O)[C@@H](O)[C@@H]1OC(C(=O)O)=C[C@H](NC(=N)N)[C@H]1NC(C)=O` [Int-7c], the pIC50 [1] was 6.40, the pIC50 [2] was 5.71 and the pIC50 [3] was 6.33. It also gave a pIC50 [4] of 6.82 and a pIC50 [5] of 6.33.

`C#CCOCCOCCOCCOCCC(=O)N(CCOCCNC(=O)O[C@@H]([C@@H]1OC(C(=O)O)=C[C@H](NC(=N)N)[C@H]1NC(C)=O)[C@H](O)CO)CCOCCOCCNC(=O)O[C@@H]([C@@H]1OC(C(=O)O)=C[C@H](NC(=N)N)[C@H]1NC(C)=O)[C@H](O)CO` [Int-76] gave a pIC50 [5] of 8.68.

`C#CCOCCOCCOCCOCCN(CCCCNC(=O)CO[C@@H]([C@@H]1OC(C(=O)O)=C[C@H](NC(=N)N)[C@H]1NC(C)=O)[C@H](O)CO)CCCCNC(=O)CO[C@@H]([C@@H]1OC(C(=O)O)=C[C@H](NC(=N)N)[C@H]1NC(C)=O)[C@H](O)CO` [Int-12] gave a pEC50 (INFV A (A/CA/09 H1N1); Influenza A virus, H1N1, MDCK, 72 h) of 7.81 and a pEC50 (INFV B (B/Brisbane); Influenza B virus, MDCK, 120 h) of 9.22.

In the case of `C#CCOCCOCCOCCOCCNC(=O)CO[C@@H]([C@@H]1OC(C(=O)O)=C[C@H](NC(=N)N)[C@H]1NC(C)=O)[C@H](O)CNC(=O)C1CC1` [Int-91], the pIC50 [5] was 7.34.

With `C#CCOCCOCCOCCOCCC(=O)N(CCCCCCNC(=O)O[C@@H]([C@@H]1OC(C(=O)O)=C[C@H](NC(=N)N)[C@H]1NC(C)=O)[C@H](O)CO)CCOCCNC(=O)O[C@@H]([C@@H]1OC(C(=O)O)=C[C@H](NC(=N)N)[C@H]1NC(C)=O)[C@H](O)CO` [Int-74] the pIC50 [5] was 8.81.

For `C#CCOCCOCCOCCOCCC(=O)N(CCOCCOCCOCCNC(=O)O[C@@H]([C@@H]1OC(C(=O)O)=C[C@H](NC(=N)N)[C@H]1NC(C)=O)[C@H](O)CO)CCOCCOCCOCCNC(=O)O[C@@H]([C@@H]1OC(C(=O)O)=C[C@H](NC(=N)N)[C@H]1NC(C)=O)[C@H](O)CO` [Int-3], the pIC50 [5] was 8.93.

In the case of `C#CCOCCOCCOCCOCCC(=O)N(CCCCNC(=O)O[C@@H]([C@@H]1OC(C(=O)O)=C[C@H](NC(=N)N)[C@H]1NC(C)=O)[C@H](O)CO)CCOCCNC(=O)O[C@@H]([C@@H]1OC(C(=O)O)=C[C@H](NC(=N)N)[C@H]1NC(C)=O)[C@H](O)CO` [Int-73], the pIC50 [5] was 8.34.

In the case of `C#CCOCCOCCOCCOCCNC(=O)CO[C@@H]([C@@H]1OC(C(=O)O)=C[C@H](NC(=N)N)[C@H]1NC(C)=O)[C@H](O)CO` [Int-22], the pIC50 [5] was 8.89.

With `C#CCOCCOCCOCCOCCC(=O)N(CCCCNC(=O)O[C@@H]([C@@H]1OC(C(=O)O)=C[C@H](NC(=N)N)[C@H]1NC(C)=O)[C@H](O)CO)CCOCCOCCNC(=O)O[C@@H]([C@@H]1OC(C(=O)O)=C[C@H](NC(=N)N)[C@H]1NC(C)=O)[C@H](O)CO` [Int-75] the pIC50 [5] was 8.75.

`C#CCOCCOCCOCCOCCC(=O)N(CCOCCNC(=O)OC[C@@H](O)[C@@H](O)[C@@H]1OC(C(=O)O)=C[C@H](NC(=N)N)[C@H]1NC(C)=O)CCOCCNC(=O)O[C@@H]([C@@H]1OC(C(=O)O)=C[C@H](NC(=N)N)[C@H]1NC(C)=O)[C@H](O)CO` [Int-7b] was tested, and the pIC50 [1] was 8.42, the pIC50 [2] was 7.80 and the pIC50 [3] was 8.25. It also gave a pIC50 [4] of 9.01.

Molecule `C#CCOCCOCCOCCOCCNC(=O)O[C@@H]([C@@H]1OC(C(=O)O)=C[C@H](NC(=N)N)[C@H]1NC(C)=O)[C@H](O)CO` [Int-4a] has a pIC50 [5] of 8.15.

Work on `C#CCOCCOCCOCCOCCC(=O)N(CCOCCNC(=O)O[C@@H]([C@@H]1OC(C(=O)O)=C[C@H](NC(=N)N)[C@H]1NC(C)=O)[C@H](O)CO)CCOCCNC(=O)O[C@@H]([C@@H]1OC(C(=O)O)=C[C@H](NC(=N)N)[C@H]1NC(C)=O)[C@H](O)CO` [Int-7] yielded a pEC50 (INFV A (A/CA/09 H1N1)) of 6.18 and a pEC50 (INFV B (B/Brisbane)) of 6.97.

With `C#CCOCCOCCOCCOCCN(C)C(=O)O[C@@H]([C@H]1OC(C(=O)O)=C[C@@H](NC(=N)N)[C@@H]1NC(C)=O)[C@H](O)CO` [Int-80] the pIC50 [5] was 7.66.
